Measured values published in patent publication US9657003B2, “Androgen receptor modulating compounds” (ORION CORPORATION, priority 2009, dated 2017).

Key:
human AR = human AR (Homo sapiens (Human), UniProt P10275); experiment: Agonism in AR overexpressing hAR/HEK293 cells, reporter gene assay; type: cell-based; conditions: % of testosterone-induced AR activity at 10 μM concentration
Protocol: AR agonism of the test compound in AR overexpressing hAR/HEK293 cells was measured as % of testosterone-induced AR activity at 10 μM concentration,
Agonism of test compounds in AR overexpressing cells was measured by reporter gene assay in HEK293 cells stably transfected with an expression vector encoding full-length human AR and androgen responsive luciferase reporter gene construct. A clone expressing high levels of androgen receptor (5 times more than AR levels in AR-HEK293 cells) was selected to study agonism in AR overexpressing cells. To determine agonism, the cells were treated with increasing concentrations of the test compound. The final DMSO concentration was 1%. The test compounds were studied in triplicates and luciferase activity was determined as described above.

[1] = system: VCaP prostate cancer cell line; experiment: Inhibition of mibolerone-induced VCaP cell proliferation (WST-1); type: cell-based; conditions: Homo sapiens, mibolerone-induced (usually 0.1 nM) proliferation, 4-5 days
Protocol: The IC50 value of the test compound for inhibition of mibolerone-induced VCaP cell proliferation was measured.
Cell Proliferation Assays
The ability of test compounds to inhibit prostate, cancer cell growth was studied by measuring inhibition of cell proliferation using androgen-sensitive VCaP prostate cancer cell line. […] Cell proliferation was measured using WST-1 Cell Proliferation Assay (Roche).

Chain of human AR (P10275 whole entry): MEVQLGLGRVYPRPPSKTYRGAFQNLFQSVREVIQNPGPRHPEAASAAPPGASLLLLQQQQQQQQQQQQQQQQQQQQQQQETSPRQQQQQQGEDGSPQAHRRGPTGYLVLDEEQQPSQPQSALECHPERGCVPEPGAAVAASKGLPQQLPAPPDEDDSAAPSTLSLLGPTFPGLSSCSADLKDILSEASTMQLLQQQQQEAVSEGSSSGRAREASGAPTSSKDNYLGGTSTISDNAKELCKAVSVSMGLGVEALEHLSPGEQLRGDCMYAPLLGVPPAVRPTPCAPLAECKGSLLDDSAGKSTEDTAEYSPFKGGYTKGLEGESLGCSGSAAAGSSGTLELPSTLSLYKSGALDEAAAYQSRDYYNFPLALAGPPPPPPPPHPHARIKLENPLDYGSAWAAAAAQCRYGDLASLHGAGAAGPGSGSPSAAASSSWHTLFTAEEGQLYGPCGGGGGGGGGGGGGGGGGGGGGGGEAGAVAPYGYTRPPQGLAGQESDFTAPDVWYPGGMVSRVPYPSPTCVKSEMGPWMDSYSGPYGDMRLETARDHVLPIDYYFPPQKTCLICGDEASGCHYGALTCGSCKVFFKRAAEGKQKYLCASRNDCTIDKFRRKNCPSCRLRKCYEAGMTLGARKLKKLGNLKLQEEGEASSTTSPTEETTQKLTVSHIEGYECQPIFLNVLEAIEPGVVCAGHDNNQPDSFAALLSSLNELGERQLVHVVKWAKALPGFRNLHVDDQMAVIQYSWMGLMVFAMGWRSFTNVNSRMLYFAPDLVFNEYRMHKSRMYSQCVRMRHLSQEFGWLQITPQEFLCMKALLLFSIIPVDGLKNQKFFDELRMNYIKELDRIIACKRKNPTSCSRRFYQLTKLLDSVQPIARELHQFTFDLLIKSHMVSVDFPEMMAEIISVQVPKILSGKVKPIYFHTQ

Cc1noc(C(=O)N[C@@H](C)Cn2ccc(-c3ccc(C#N)c(Cl)c3)n2)n1 [Example 103, (S)—N-(1-(3-(3-chloro-4-cyanophenyl)-1H-pyrazol-1-yl)propan-2-yl)-3-methyl-1,2,4-oxadiazole-5-carboxamide]
Agonism in AR overexpressing cells (%) (human AR): 19%

C[C@@H](Cn1ccc(-c2ccc(C#N)c(Cl)c2)n1)NC(=O)c1csc(-c2cn[nH]c2)n1 [Example 206, (S)—N-(1-(3-(3-chloro-4-cyanophenyl)-1H-pyrazol-1-yl)propan-2-yl)-2-(1H-pyrazol-4-yl)thiazole-4-carboxamide]
Agonism in AR overexpressing cells (%) (human AR): >20%

Cc1nc(C(=O)N[C@@H](C)Cn2ccc(-c3ccc(C#N)c(Cl)c3)n2)c[nH]1 [Example 248, (S)—N-{1-[3-(3-Chloro-4-cyanophenyl)-1H-pyrazol-1-yl]propan-2-yl}-2-methyl-1H-imidazole-4-carboxamide]
IC50 [1]: 490 nM

C[C@H](CNC(=O)c1csc(CC#N)n1)n1ccc(-c2cc(F)c(C#N)c(F)c2)n1 [Example 222, (R)—N-(2-(3-(4-cyano-3,5-difluorophenyl)-1H-pyrazol-1-yl)propyl)-2-(cyanomethyl)thiazole-4-carboxamide]
Agonism in AR overexpressing cells (%) (human AR): 20%

CCc1noc(C(=O)N[C@@H](C)Cn2ccc(-c3ccc(C#N)c(Cl)c3)n2)n1 [Example 91, (S)—N-(1-(3-(3-chloro-4-cyanophenyl)-1H-pyrazol-1-yl)propan-2-yl)-3-ethyl-1,2,4-oxadiazole-5-carboxamide]
Agonism in AR overexpressing cells (%) (human AR): 18%

C[C@@H](Cn1ccc(-c2ccc(C#N)c(Cl)c2)n1)NC(=O)c1[nH]nc2c1COCC2 [Example 338, (S)—N-(1-(3-(3-chloro-4-cyanophenyl)-1H-pyrazol-1-yl)propan-2-yl)-2,4,6,7-tetrahydropyrano[4,3-c]pyrazole-3-carboxamide]
Agonism in AR overexpressing cells (%) (human AR): 25%

CC(=O)c1cc(C(=O)NC[C@H](C)n2ccc(-c3cc(F)c(C#N)c(F)c3)n2)[nH]n1 [Example 219, (S)-3-acetyl-N-(2-(3-(4-cyano-3,5-difluorophenyl)-1H-pyrazol-1-yl)propyl)-1H-pyrazole-5-carboxamide]
Agonism in AR overexpressing cells (%) (human AR): 0%

Cc1cc(-c2ccn(C[C@H](C)NC(=O)c3cc(-c4ccco4)n[nH]3)n2)ccc1C#N [Example 32, (S)—N-(1-(3-(4-cyano-3-methylphenyl)-1H-pyrazol-1-yl)propan-2-yl)-3-(furan-2-yl)-1H-pyrazole-5-carboxamide]
Agonism in AR overexpressing cells (%) (human AR): 39%

Cc1nc(C(=O)N[C@@H](C)Cn2ccc(-c3cc(F)c(C#N)c(Cl)c3)n2)c[nH]1 [Example 249, (S)—N-{1-[3-(3-Chloro-4-cyano-5-fluorophenyl)-1H-pyrazol-1-yl]propan-2-yl}-2-methyl-1H-imidazole-4-carboxamide]
Agonism in AR overexpressing cells (%) (human AR): 34%

CC(O)c1cc(C(=O)N[C@@H](C)Cn2ccc(-c3ccc(C#N)c(Cl)c3)n2)[nH]n1 (stereo partly drawn) [Example 56, N—((S)-1-(3-(3-chloro-4-cyanophenyl)-1H-pyrazol-1-yl)-propan-2-yl)-3-(1-hydroxyethyl)-1H-pyrazole-5-carboxamide]
Agonism in AR overexpressing cells (%) (human AR): 27%

O=C(NCCc1ccc(-c2ccc(Cl)c(Cl)c2)o1)c1cc(C(=O)N2CCOCC2)n[nH]1 [Example 8, N-(2-(5-(3,4-dichlorophenyl)furan-2-yl)ethyl)-3-(morpholine-4-carbonyl)-1H-pyrazole-5-carboxamide]
Agonism in AR overexpressing cells (%) (human AR): 0%

CC(=O)c1cc(C(=O)N[C@@H](C)Cn2ccc(-c3ccc(C#N)c(Cl)c3)n2)[nH]n1 [Example 34, (S)-3-acetyl-N-(1-(3-(3-chloro-4-cyanophenyl)-1H-pyrazol-1-yl)propan-2-yl)-1H-pyrazole-5-carboxamide]
Agonism in AR overexpressing cells (%) (human AR): 39%

C[C@@H](Cn1ccc(-c2cc(F)c(C#N)c(Cl)c2)n1)NC(=O)c1cn2cccnc2n1 [Example 324, (S)—N-(1-(3-(3-chloro-4-cyano-5-fluorophenyl)-1H-pyrazol-1-yl)propan-2-yl)imidazo[1,2-a]pyrimidine-2-carboxamide]
Agonism in AR overexpressing cells (%) (human AR): 16%

Cc1c(-c2ccn(C[C@H](C)NC(=O)c3csc(C(C)O)n3)n2)ccc(C#N)c1Cl (stereo partly drawn) [Example 186, N—((S)-1-(3-(3-chloro-4-cyano-2-methylphenyl)-1H-pyrazol-1-yl)propan-2-yl)-2-(1-hydroxyethyl)thiazole-4-carboxamide]
Agonism in AR overexpressing cells (%) (human AR): >20%

C[C@H](Cn1ccc(-c2ccc(C#N)c(Cl)c2)n1)NC(=O)c1csc(N2CCOCC2)n1 [Example 132, (R)—N-(1-(3-(3-chloro-4-cyanophenyl)-1H-pyrazol-1-yl)propan-2-yl)-2-morpholinothiazole-4-carboxamide]
Agonism in AR overexpressing cells (%) (human AR): 21%

Cc1nc(-c2cc(C(=O)N[C@@H](C)Cn3ccc(-c4ccc(C#N)c(Cl)c4)n3)n[nH]2)cs1 [Example 94, (S)—N-(1-(3-(3-chloro-4-cyanophenyl)-1H-pyrazol-1-yl)propan-2-yl)-5-(2-methylthiazol-4-yl)-1H-pyrazole-3-carboxamide]
Agonism in AR overexpressing cells (%) (human AR): 18%

N#Cc1ccc(-c2ccn(CCNC(=O)c3cc(-c4cccnc4)n[nH]3)n2)cc1C#N [Example 52, N-(2-(3-(3,4-dicyanophenyl)-1H-pyrazol-1-yl)ethyl)-3-(pyridin-3-yl)-1H-pyrazole-5-carboxamide]
Agonism in AR overexpressing cells (%) (human AR): 40%

CC(O)c1cc(C(=O)N[C@@H](C)Cn2ccc(-c3ccc(C#N)c(Cl)c3)n2)no1 (stereo partly drawn) [Example 124, N—((S)-1-(3-(3-chloro-4-cyanophenyl)-1H-pyrazol-1-yl)propan-2-yl)-5-(1-hydroxyethyl)isoxazole-3-carboxamide]
Agonism in AR overexpressing cells (%) (human AR): 5%
